{"source": "paper PMC7614683", "about": "“A small molecule PI3Kα activator for cardioprotection and neuroregeneration” (Nature, 2023)", "key": {"MCF10A cells": {"system": "MCF10A cells", "experiment": "pAKT S473 western blot, MCF10A", "assay_type": "cell-based, human"}, "LCK": {"molecular_target": "LCK (Homo sapiens, UniProt P06239)", "sequence (P06239 whole entry)": "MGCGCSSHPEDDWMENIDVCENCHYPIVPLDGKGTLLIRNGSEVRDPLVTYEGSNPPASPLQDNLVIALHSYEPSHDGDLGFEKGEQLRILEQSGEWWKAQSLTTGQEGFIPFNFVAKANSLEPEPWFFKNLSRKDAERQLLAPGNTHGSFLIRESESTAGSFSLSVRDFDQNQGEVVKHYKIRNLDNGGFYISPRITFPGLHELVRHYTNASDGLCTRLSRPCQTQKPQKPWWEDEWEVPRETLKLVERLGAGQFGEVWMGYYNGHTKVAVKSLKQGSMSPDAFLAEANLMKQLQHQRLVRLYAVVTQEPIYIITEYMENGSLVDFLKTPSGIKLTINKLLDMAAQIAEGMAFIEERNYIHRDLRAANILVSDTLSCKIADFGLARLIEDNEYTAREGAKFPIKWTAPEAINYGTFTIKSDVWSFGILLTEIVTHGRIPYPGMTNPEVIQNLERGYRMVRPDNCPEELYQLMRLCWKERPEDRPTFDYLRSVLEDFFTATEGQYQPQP", "experiment": "SelectScreen kinase profiling, LCK", "assay_type": "biochemical", "method": "133 protein kinases and 7 lipid kinases were counterscreened, with 1938 used at 1 μM, using the Adapta, Lantha and Z-LYTE assays (SelectScreen Kinase Profiling Service; Thermofisher – experimental details of these assays can be found here: https://www.thermofisher.com/uk/en/home/industrial/pharma-biopharma/drug-discovery-development/target-and-lead-identification-and-validation/kinasebiology/kinase-activity-assays.html. The tree represention in KinMap[59] generated courtesy of Cell Signaling Technology, Inc. (www.cellsignal.com). mTORC1 (mTOR/RAPTOR/LST8) protein complex and ATM kinase and substrates were produced as previously described[57],[60]. Screening of 1938 was conducted using SuperSep Phos-Tag 50 μmol/l 100 x 100 x 6.6 mm 17-well (192-18001/199-18011) gels. For ATM assays, 100 nM ATM was incubated for 30 min at 30°C with 5 μM GST-p53 and 1 mM ATP, in the absence or presence of 200 μM 1938 in ATM Kinase Buffer (50 mM HEPES pH 7.5, 100 mM NaCl, 10% glycerol, 2 mM […], 5 mM MgCl2). As a positive control for ATM activation, the same reaction was carried out with 100 nM ATM/5 μM GST-p53/1 mM ATP in the presence of 100 nM Mre11-Rad50-Nbs1 (MRN) complex, a known activator of ATM[61]. For mTORC1 assays, 50 nM mTORC1 complex (mTOR/LST8/RAPTOR) was incubated for 3 h at 30°C with 15 μM 4E-BP1, 10 mM MgCl2 and 250 μM ATP, in the absence or presence of 200 μM 1938. As a ‘positive’ control, a higher concentration (150 nM) of mTORC1 complex (mTOR/LST8/RAPTOR) was incubated for 3 h at 30°C with 15 μM 4E-BP1, 10 mM MgCl2 and 250 μM ATP. Kinase reactions were quenched by addition of SDS-PAGE Loading Buffer (as per manufacturer’s instructions) and freezing at -20°C before being run on the Phos-tag gels at 150 V for 90 min. Gels were then stained using InstantBlue™ Coomassie, and quantified using BioRad Image Lab Software. Kinase assays were carried out in triplicate."}, "HeLa cells": {"system": "HeLa cells", "experiment": "TIRF microscopy of PIP3 and PI(3,4)P2 reporters, HeLa", "assay_type": "cell-based, human", "method": "Phosphoinositide reporters used were GFP-PH-ARNO^I303Ex2 (PIP3 reporter[41]) and mCherry-cPH-TAPP1x3 (PI(3,4)P2 reporter[41]). TIRF microscopy allows selective imaging of the small cell volume, including the plasma membrane, directly adjacent to the coverslip onto which cells have been seeded. HeLa or A549 cells were seeded in Matrigel-coated (Corning #354230; diluted in Opti-MEM at 1:50) 8-well chamber slides (glass bottom, 1.55 refractive index; Thermo Fisher Scientific #155409) at a density of 5,000 cells/well. […]\nImage analyses of total reporter intensities were performed with the Fiji open source image analysis package. The region of interest (ROI) corresponding to the footprint of the individual cell across time points were defined using minimal intensity projection to select only pixels present across all time points, following prior subtraction of camera noise (rolling ball method, radius = 500 pixels) and xy drift correction, intensity levels over time were measured. […] All other quantifications were performed using the open source software R/RStudio. The values plotted in Fig. 3d (iii) represent mean±SEM, following signal scaling to minimum and maximum values of the normalised fluorescence intensity for each time point (Fn(t)). […]"}}, "note": "Read-outs that look alike come from different tables or passages of the source.", "data": [{"smiles": "CCN1CCN(c2ccc(Nc3cc(Nc4cccc5c4N(C(C)=O)CC5)ccn3)cc2)CC1", "note": "[Compound 1938]", "values": [{"measurement": "pAKT^S473 increase", "setting": "MCF10A cells", "result": "BYL719-sensitive increase in pAKT^S473"}, {"measurement": "inhibition at 1 µM", "setting": "LCK; read-out: % Inhibition Point 1", "result": 60, "unit": "%"}, {"measurement": "inhibition at 1 µM", "setting": "LCK; read-out: % Inhibition Point 2", "result": 57, "unit": "%"}, {"measurement": "inhibition at 1 µM", "setting": "LCK; read-out: % Inhibition mean", "result": 58, "unit": "%"}, {"measurement": "membrane-associated PI(3,4)P2 (biosensor)", "setting": "HeLa cells", "result": "generation of membrane-associated PI(3,4)P2"}, {"measurement": "plasma membrane PIP3 (biosensor)", "setting": "HeLa cells", "result": "acute and BYL719-sensitive burst of PIP3"}]}]}
